How the values were obtained:
Type in all cases: in vivo
[1] = system: Cotton Aphid (Aphis gossypii, Mixed Life Stages); experiment: Cotton aphid, method a (cotyledon dip); conditions: 120 h, cotton cotyledons dipped, after 5 days, read-out: mortality in comparison with untreated controls
From the text: II.1 Cotton Aphid (Aphis gossypii, Mixed Life Stages)
The active compounds were formulated in 50:50 (vol/vol) acetone:water and 100 ppm Kinetica™ surfactant.
Cotton plants at the cotyledon stage (one plant per pot) were infested by placing a heavily infested leaf from the main colony on top of each cotyledon. The aphids were allowed to transfer to the host plant overnight, and the leaf used to transfer the aphids was removed. The cotyledons were dipped in the test solution and allowed to dry. After 5 days, mortality counts were made.

[2] = system: Cowpea Aphid (Aphis craccivora); experiment: Cowpea aphid, potted cowpea plants sprayed; conditions: population reduction assessed after 24, 72 and 120 hours, read-out: mortality in comparison with untreated controls
Method: II.3 Cowpea Aphid (Aphis craccivora)
The active compounds were formulated in 50:50 (vol/vol) acetone:water. The test solution was prepared at the day of use.
Potted cowpea plants colonized with 100-150 aphids of various stages were sprayed after the pest population had been recorded. Population reduction was assesed after 24, 72, and 120 hours.

[3] = system: Vetch Aphid (Megoura viciae); experiment: Vetch aphid, bean leaf disks in microtiterplates; conditions: foliar, 144 h, test solution 2500 mg/L, bean leaf disks sprayed, 6 days
Method: II.4 Vetch Aphid (Megoura viciae)
The active compounds were formulated in 1:3 (vol/vol) DMSO:water with different concentrations of formulated compounds.
Bean leaf disks were placed into microtiterplates filled with 0.8% agar-agar and 2.5 ppm OPUS™. The leaf disks were sprayed with 2.5 μl of the test solution and 5 to 8 adult aphids were placed into the microtiterplates which were then closed and kept at 23±1° C. and 50±5% relative humidity under fluorescent light for 6 days. Mortality was assessed on the basis of vital, reproduced aphids. Aphid mortality and fecundity was then visually assessed.

Compound: Cc1c(C(=O)Nc2cccnc2)nnn1Cc1ccccc1 [Example 2, 1-Benzyl-5-methyl-1H-[1,2,3]triazole-4-carboxylic acid pyridin-3-ylamide]
- mortality at 300 ppm [1]: ≥ 75%
- mortality at 300 ppm [2]: ≥ 90%
- mortality at 2500 µg/mL [3]: ≥ 90%

From patent US10206401B2, “Pyridine compounds for controlling invertebrate pests II” (BASF SE, priority 2010, dated 2019)
